Reference: patent publication US20210115104A1, “AMYLIN ANALOGUES” (Zealand Pharma A/S, priority 2015, published 2021)
*1 amine or outer side, *2 acyl side, *3 side chain or, on linkers, in order; H or OH if unused. Where a SMILES comes first, the peptide text is derived from it. Bridges are numbered along the chain shown (N, C = ends). [ ]: non-standard residue; d: D form. The star is where a group is joined. C20 diacid = O=C(O)CCCCCCCCCCCCCCCCCCC(=O)*; Pro(4R-NH2) = N[C@H]1CN[C@H](C(=O)O)C1; γGlu = O=C(O)[C@H](CCC(=O)[*:2])N[*:1]; NMeI = CC[C@H](C)[C@H](NC)C(=O)O; Sar = CNCC(=O)O

Columns and labels:
[1] = Assessment of chemical stability (RP-HPLC normalized purity); format: physicochemical; conditions: for Normalized purity after 7 days, 40° C., pH 4: pH 4, 0.2 mg/ml; for Normalized purity after 7 days, 40° C., pH 4 / Normalized purity after 7 days, 40° C., pH 7.5 / Normalized purity after 7 days, 40° C., pH 9: Table 1; for Normalized purity after 7 days, 40° C., pH 7.5: pH 7.5, 0.2 mg/ml; for Normalized purity after 7 days, 40° C., pH 9: pH 9, 0.2 mg/ml
Procedure: Samples of each test peptide were dissolved in MilliQ™ water, and the pH of the solution was adjusted to pH 4, pH 6, pH 7.5 or pH 9, respectively, using either HCl or NaOH. The final peptide concentration was 0.2 mg/ml. Samples were placed in glass vials and incubated at 40° C. The samples were analyzed by RP-HPLC on a C8 column with gradient elution using an ammonium formate/water eluent system, or on a C18 column with gradient elution using a trifluoroacetic acid/water eluent system. The area-percentage (area-%) of the main peak after incubation time T=t (relative to time T=0) was determined by UV spectroscopy at 220 nm.
The purity was first determined as follows:
Purity(area-%)=(area of main peak/total area of all peaks)×100.
The purity was then normalized between time points by setting purity at time 0 (T=0) to 100 for each pH value for a given peptide, as follows:
Normalised area-% at time t (T=t)=[area-%(T=t)/area-%(T=0)]×100.
The normalized purity values in Table 1 were determined after 7 days of incubation.
The chemical stability assessment described in Example 6 was repeated for four pairs of compounds, each differing only by the presence or absence of an Asn-Asn (N—N) doublet at positions 21 and 22.

[2] = Assessment of physical stability (Thioflavin T fibrillation); format: physicochemical; parameters: key: FND = fibrillation not detected; FD = fibrillation detected; conditions: 1 mg/ml, 40° C., ThT; for Fibrillation pH 4.0 (Ac): 50 mM acetate buffer pH 4.0, 96 hours; for Fibrillation pH 7.0 (His): 50 mM histidine buffer pH 7.0, 96 hours; for Fibrillation pH 7.0 (Phos.): 50 mM phosphate buffer pH 7.0, 96 hours
Procedure: Solutions containing (i) 1 mg/ml of test peptide, 40 μM ThT and 50 mM phosphate (Ph) buffer (pH 7.0), (ii) 1 mg/ml of test peptide, 40 μM ThT and 50 mM histidine (His) buffer (pH 7.0), and (iii) 1 mg/ml of test peptide, 40 μM ThT and 50 mM acetate (Ac) buffer (pH 4.0), were loaded in a 96-well black fluorescence plate (clear bottom) in triplicate. Data were collected at fixed intervals of 10 min, each preceded by 300 s of automixing (agitation), over a period of 96 hours at 40° C. Physical stability, expressed as lag-time of fibril formation (in hours), was defined as the intersection between two linear regressions representing the initial stable phase and the growth phase.

Row | SMILES | Normalized purity after 7 days, 40° C., pH 4 [1] | Normalized purity after 7 days, 40° C., pH 7.5 [1] | Normalized purity after 7 days, 40° C., pH 9 [1] | Fibrillation pH 4.0 (Ac) [2] | Fibrillation pH 7.0 (His) [2] | Fibrillation pH 7.0 (Phos.) [2] | Normalized purity pH 4 (Table 5) ([1]; pH 4, repeat of Example 6 for pairs with/without Asn-Asn at 21-22) | Normalized purity pH 6 (Table 5) ([1]; pH 6, repeat of Example 6 for pairs with/without Asn-Asn at 21-22) | Normalized purity pH 7.5 (Table 5) ([1]; pH 7.5, repeat of Example 6 for pairs with/without Asn-Asn at 21-22) | Normalized purity pH 9 (Table 5) ([1]; pH 9, repeat of Example 6 for pairs with/without Asn-Asn at 21-22)
1 | CC[C@H](C)[C@@H](C(=O)N[C@@H](CC(C)C)C(=O)N[C@@H](CO)C(=O)N[C@@H](CO)C(=O)N[C@H](C(=O)N[C@@H](CCC(=O)O)C(=O)N[C@H](C(=O)NCC(=O)N[C@@H](CO)C(=O)N[C@@H](CCC(=O)O)C(=O)N[C@H](C(=O)N1CCC[C@H]1C(N)=O)[C@@H](C)O)C(C)C)[C@@H](C)O)N(C)C(=O)[C@H](C)NC(=O)CN(C)C(=O)[C@H](Cc1ccccc1)NC(=O)[C@H](CO)NC(=O)[C@H](CO)NC(=O)[C@H](CCCNC(=N)N)NC(=O)[C@H](Cc1c[nH]cn1)NC(=O)[C@H](CC(C)C)NC(=O)[C@H](Cc1ccccc1)NC(=O)[C@H](Cc1c[nH]cn1)NC(=O)[C@H](C)NC(=O)[C@H](CC(C)C)NC(=O)[C@H](CCCNC(=N)N)NC(=O)[C@H](CCC(N)=O)NC(=O)[C@@H](NC(=O)[C@H](C)NC(=O)[C@@H]1CSSC[C@H](NC(=O)[C@H](CCCNC(=N)N)NC(=O)CC[C@H](NC(=O)CCCCCCCCCCCCCCCCCCC(=O)O)C(=O)O)C(=O)N[C@@H](CC(N)=O)C(=O)N[C@@H]([C@@H](C)O)C(=O)N[C@@H](C)C(=O)N[C@@H]([C@@H](C)O)C(=O)N1)[C@@H](C)O [Compound 2, [19CD]-isoGlu-R-C( )-NTAT-C( )-ATQRLAHFLHRSSF-Gly(Me)-A-Ile(Me)-LSSTEVGSETP-NH2] ({C20 diacid-γGlu}-RCNTATCATQRLAHFLHRSSF[Sar]A[NMeI]LSSTEVGSETP-NH2; disulfide 2-7) | A (A = >90%) | A (A = >90%) | B (B = 70-90%) | FND | FD | FND | – | – | – | –
2 | CC[C@H](C)[C@@H](C(=O)N[C@@H](CC(C)C)C(=O)N[C@@H](CO)C(=O)N[C@@H](CO)C(=O)N[C@H](C(=O)N[C@@H](CCC(=O)O)C(=O)N[C@H](C(=O)NCC(=O)N[C@@H](CO)C(=O)N[C@@H](CCC(=O)O)C(=O)N[C@H](C(=O)N1CCC[C@H]1C(N)=O)[C@@H](C)O)C(C)C)[C@@H](C)O)N(C)C(=O)[C@H](C)NC(=O)CN(C)C(=O)[C@H](Cc1ccccc1)NC(=O)[C@H](CO)NC(=O)[C@H](CO)NC(=O)[C@H](CCCNC(=N)N)NC(=O)[C@H](Cc1c[nH]cn1)NC(=O)[C@H](CC(C)C)NC(=O)[C@H](Cc1ccccc1)NC(=O)[C@H](CC(N)=O)NC(=O)[C@H](C)NC(=O)[C@H](CC(C)C)NC(=O)[C@H](CCCNC(=N)N)NC(=O)[C@H](CCC(N)=O)NC(=O)[C@@H](NC(=O)[C@H](C)NC(=O)[C@@H]1CSSC[C@H](NC(=O)[C@H](CCCNC(=N)N)NC(=O)CC[C@H](NC(=O)CCCCCCCCCCCCCCCCCCC(=O)O)C(=O)O)C(=O)N[C@@H](CC(N)=O)C(=O)N[C@@H]([C@@H](C)O)C(=O)N[C@@H](C)C(=O)N[C@@H]([C@@H](C)O)C(=O)N1)[C@@H](C)O [Compound 3, [19CD]-isoGlu-R-C( )-NTAT-C( )-ATQRLANFLHRSSF-Gly(Me)-A-Ile(Me)-LSSTEVGSETP-NH2] ({C20 diacid-γGlu}-RCNTATCATQRLANFLHRSSF[Sar]A[NMeI]LSSTEVGSETP-NH2; disulfide 2-7) | A (A = >90%) | B (B = 70-90%) | B (B = 70-90%) | FD | FD | FD | – | – | – | –
3 | CC[C@H](C)[C@@H](C(=O)N[C@@H](CC(C)C)C(=O)N[C@@H](CO)C(=O)N[C@@H](CO)C(=O)N[C@H](C(=O)N[C@@H](CC(N)=O)C(=O)N[C@H](C(=O)NCC(=O)N[C@@H](CO)C(=O)N[C@@H](CC(N)=O)C(=O)N[C@H](C(=O)N1C[C@H](N)C[C@H]1C(N)=O)[C@@H](C)O)C(C)C)[C@@H](C)O)N(C)C(=O)[C@H](C)NC(=O)CN(C)C(=O)[C@H](Cc1ccccc1)NC(=O)[C@H](CC(N)=O)NC(=O)[C@H](CC(N)=O)NC(=O)[C@H](CO)NC(=O)[C@H](CO)NC(=O)[C@H](CCCNC(=N)N)NC(=O)[C@H](Cc1c[nH]cn1)NC(=O)[C@H](CC(C)C)NC(=O)[C@H](Cc1ccccc1)NC(=O)[C@H](Cc1c[nH]cn1)NC(=O)[C@H](C)NC(=O)[C@H](CC(C)C)NC(=O)[C@H](CCCNC(=N)N)NC(=O)[C@H](CCC(N)=O)NC(=O)[C@@H](NC(=O)[C@H](C)NC(=O)[C@@H]1CSSC[C@H](NC(=O)[C@H](CCCNC(=N)N)NC(=O)CC[C@H](NC(=O)CCCCCCCCCCCCCCCCCCC(=O)O)C(=O)O)C(=O)N[C@@H](CC(N)=O)C(=O)N[C@@H]([C@@H](C)O)C(=O)N[C@@H](C)C(=O)N[C@@H]([C@@H](C)O)C(=O)N1)[C@@H](C)O [Compound 5, [19CD]-isoGlu-R-C( )-NTAT-C( )-ATQRLAHFLHRSSNNF-Gly(Me)-A-Ile(Me)-LSSINVGSNT-Apr-NH2] ({C20 diacid-γGlu}-RCNTATCATQRLAHFLHRSSNNF[Sar]A[NMeI]LSSTNVGSNT[Pro(4R-NH2)]-NH2; disulfide 2-7) | B (B = 70-90%) | C (C = <70%) | C (C = <70%) | FND | FND | FND | – | – | – | –
4 | CC[C@H](C)[C@H](NC(=O)[C@@H]1CCCN1C(=O)CNC(=O)[C@H](Cc1ccccc1)NC(=O)[C@H](CO)NC(=O)[C@H](CO)NC(=O)[C@H](Cc1c[nH]cn1)NC(=O)[C@H](Cc1c[nH]cn1)NC(=O)[C@H](CC(C)C)NC(=O)[C@H](Cc1ccccc1)NC(=O)[C@H](CCC(=O)O)NC(=O)[C@H](C)NC(=O)[C@H](CC(C)C)NC(=O)[C@H](CCCNC(=N)N)NC(=O)[C@H](CCC(N)=O)NC(=O)[C@@H](NC(=O)[C@H](C)NC(=O)[C@@H]1CSSC[C@H](NC(=O)[C@H](CCCNC(=N)N)NC(=O)CC[C@H](NC(=O)CCCCCCCCCCCCCCCCCCC(=O)O)C(=O)O)C(=O)N[C@@H](CC(N)=O)C(=O)N[C@@H]([C@@H](C)O)C(=O)N[C@@H](C)C(=O)N[C@@H]([C@@H](C)O)C(=O)N1)[C@@H](C)O)C(=O)N[C@@H](CC(C)C)C(=O)N1CCC[C@H]1C(=O)N1CCC[C@H]1C(=O)N[C@H](C(=O)N[C@@H](CC(N)=O)C(=O)N[C@H](C(=O)NCC(=O)N[C@@H](CO)C(=O)N[C@@H](CC(N)=O)C(=O)N[C@H](C(=O)N1CCC[C@H]1C(N)=O)[C@@H](C)O)C(C)C)[C@@H](C)O [Compound 97, reference compound] ({C20 diacid-γGlu}-RCNTATCATQRLAEFLHHSSFGPILPPTNVGSNTP-NH2; disulfide 2-7) | – | – | – | – | – | – | A (A = >90%) | A (A = >90%) | A (A = >90%) | A (A = >90%)
5 | CC[C@H](C)[C@H](NC(=O)[C@@H]1CCCN1C(=O)CNC(=O)[C@H](Cc1ccccc1)NC(=O)[C@H](CC(N)=O)NC(=O)[C@H](CC(N)=O)NC(=O)[C@H](CO)NC(=O)[C@H](CO)NC(=O)[C@H](Cc1c[nH]cn1)NC(=O)[C@@H](NC(=O)[C@H](CC(C)C)NC(=O)[C@H](Cc1ccccc1)NC(=O)[C@H](CC(N)=O)NC(=O)[C@H](C)NC(=O)[C@H](CC(C)C)NC(=O)[C@H](CCCNC(=N)N)NC(=O)[C@H](CCC(N)=O)NC(=O)[C@@H](NC(=O)[C@H](C)NC(=O)[C@@H]1CSSC[C@H](NC(=O)[C@@H](N)CCCCN)C(=O)N[C@@H](CC(N)=O)C(=O)N[C@@H]([C@@H](C)O)C(=O)N[C@@H](C)C(=O)N[C@@H]([C@@H](C)O)C(=O)N1)[C@@H](C)O)C(C)C)C(=O)N[C@@H](CC(C)C)C(=O)N1CCC[C@H]1C(=O)N1CCC[C@H]1C(=O)N[C@H](C(=O)N[C@@H](CC(N)=O)C(=O)N[C@H](C(=O)NCC(=O)N[C@@H](CO)C(=O)N[C@@H](CC(N)=O)C(=O)N[C@H](C(=O)N[C@@H](Cc1ccc(O)cc1)C(N)=O)[C@@H](C)O)C(C)C)[C@@H](C)O [Pramlintide, reference compound] | – | – | – | FD | – | FD | – | – | – | –
